≈ marks a conversion by molar mass, not a printed value. Square brackets hold non-standard residues; d marks the D form. Peptide text beside a SMILES is read from it. Nspe = C[C@H](NCC(=O)O)c1ccccc1; Nlys = NCCCCNCC(=O)O

One series deals with NIH 3T3 cells. Put plainly: Metabolic activity, MTS assay. It counts as cell-based, mouse. As for the experimental part:
NIH 3T3 mouse fibroblast cells were cultured in complete Dulbecco’s Modified Eagle’s Media. A peptoid solution plate (100 µL per well) was prepared by serial dilution of aqueous peptoid stock solutions in Hank’s balanced salt solution. A day-old cell monolayer was washed thoroughly with Hank’s balanced salt solution and replenished with 100 µL Hank’s balanced salt solution per well. Peptoid solutions were transferred onto the day-old cell monolayers, which contained approximately 5000 cells per well. […] The average of six replicate trials is reported.
(Formazan colour is commonly taken as a measure of viable cells.)

For the next series, the system named is E. coli ATCC 35218. It counts as cell-based. Put shortly: (§1)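 MICs determined by 2:1 serial broth microdilution in cation-adjusted Mueller-Hinton broth per CLSI M7-A6, using inoculum at 1 x 10^6 CFU/mL mixed 1:1 with peptoid solution. Three independent replicates, each with two parallel trials.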
The test system of the next series is B. subtilis ATCC 6633. It counts as cell-based. The procedure, abridged:
as §1

The subject of another series is E. faecium mic80 (VRE). Briefly: microbe, parasite or virus in culture. To be noted: mic80 (VRE). Put shortly:
(§2)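 Modified broth microdilution in Mueller Hinton medium in polypropylene plates; test agents serially diluted in 0.01% acetic acid with 0.2% BSA at 10-fold final concentration.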

The next series deals with S. aureus ATCC25923. Put plainly: microbe, parasite or virus in culture. To be noted: ATCC25923. Put shortly:
as §2

Series [1] concerns P. aeruginosa LES400 (MDR). Briefly: microbe, parasite or virus in culture. To be noted: LES400 (MDR). Put shortly:
as §2

For the next series, the system named is P. aeruginosa 9 (MDR). Put plainly: microbe, parasite or virus in culture. To be noted: 9 (MDR). The procedure, abridged:
as §2

The subject of series [2] is P. aeruginosa H1027 (MDR). Put plainly: microbe, parasite or virus in culture. To be noted: H1027 (MDR). The procedure, abridged:
as §2

For another series, the system named is S. aureus C623 (MRSA). Put plainly: microbe, parasite or virus in culture. To be noted: C623. The procedure, abridged:
as §2

Another series has as its system P. aeruginosa 213 (MDR). Put plainly: microbe, parasite or virus in culture. To be noted: 213 (MDR). The procedure, abridged: as §2
Series [3] relates to P. aeruginosa H103 (wild type). Put plainly: microbe, parasite or virus in culture. To be noted: H103 (wild type). The procedure, abridged:
as §2

Another series has as its system E. faecium T62764 (VRE). Put plainly: microbe, parasite or virus in culture. To be noted: T62764 (VRE). The procedure, abridged:
as §2

Series [4] has as its system K. pneumonia 63575 (ESBL). Put plainly: microbe, parasite or virus in culture. Put shortly:
as §2

The subject of the next series is E. coli 63103 (ESBL). Put plainly: microbe, parasite or virus in culture. To be noted: 63103 (ESBL). Put shortly:
as §2

Another series concerns P. maltophilia ATCC13637. Put plainly: microbe, parasite or virus in culture. To be noted: ATCC13637. Put shortly: as §2
The next series concerns E. faecalis F43559 (VRE). Briefly: microbe, parasite or virus in culture. To be noted: F43559 (VRE). The procedure, abridged:
as §2

Another series deals with E. coli 64771 (ESBL). Put plainly: microbe, parasite or virus in culture. To be noted: 64771 (ESBL). The procedure, abridged:
as §2

A further series deals with P. aeruginosa 198 (MDR). Briefly: microbe, parasite or virus in culture. To be noted: 198 (MDR). Put shortly:
as §2

Series [5] relates to E. cloacae 218R Class C β-lactamase. Put plainly: microbe, parasite or virus in culture. To be noted: 218R Class C β-lactamase. The procedure, abridged: as §2
For a further series, the system named is E. faecalis W61950 (VRE). Briefly: microbe, parasite or virus in culture. To be noted: W61950 (VRE). Put shortly: as §2
Series [6] relates to K. pneumonia 61962 (ESBL). Put plainly: microbe, parasite or virus in culture. Put shortly: as §2
Series [7] has as its system P. aeruginosa H1030 (MDR). Briefly: microbe, parasite or virus in culture. To be noted: P. aeruginosa H1030 (MDR). Put shortly:
as §2

In another series the test system is E. faecalis ATCC29212. Briefly: microbe, parasite or virus in culture. To be noted: ATCC29212. The procedure, abridged:
as §2

For a further series, the system named is erythrocytes. Put plainly: Hemolytic activity (HD10/HD50). It is filed as cell-based. From the text: Table 1 Characteristics of antimicrobial peptoids, screened for activity against B. subtilis and E. coli bacterial strains. | column: HD10 / HD50

Regarding `CC(C)[C@H](C)N(CC(N)=O)C(=O)CN(C(=O)CN(CCCCN)C(=O)CN(C(=O)CN(C(=O)CN(CCCCN)C(=O)CN(C(=O)CN(C(=O)CN(CCCCN)C(=O)CN(C(=O)CN(C(=O)CNCCCCN)[C@@H](C)C(C)C)[C@@H](C)C(C)C)[C@@H](C)C(C)C)[C@@H](C)C(C)C)[C@@H](C)C(C)C)[C@@H](C)C(C)C)[C@@H](C)C(C)C` [Peptoid 1-Nsdpall, H-(NLys-Nsdp-Nsdp)4-NH2], the “ID50 (inhibitory dose, metabolic activity)” value in the series on NIH 3T3 cells was found to be 64 µM. In addition, in the series with E. coli ATCC 35218, the “MIC E. coli” value turned out to be 25 µM (≈ 38.7 µg/mL). Also, the “MIC B. subtilis” value against B. subtilis ATCC 6633 stood at 0.78 µM (≈ 1.21 µg/mL). The MIC in the series on E. faecium mic80 (VRE) amounted to 16 µg/mL (≈ 10.3 µM); with S. aureus ATCC25923, 16 µg/mL (≈ 10.3 µM); in series [1], 32 µg/mL (≈ 20.7 µM); with P. aeruginosa 9 (MDR) it was 256 µg/mL (≈ 165 µM); in [2], 4 µg/mL (≈ 2.59 µM); in the series on S. aureus C623 (MRSA) it was 8 µg/mL (≈ 5.17 µM). Besides, the MIC in the series with P. aeruginosa 213 (MDR) came out at 64 µg/mL (≈ 41.4 µM); in [3] it was 32 µg/mL (≈ 20.7 µM); in the series with E. faecium T62764 (VRE), 4 µg/mL (≈ 2.59 µM); in series [4], 128 µg/mL (≈ 82.7 µM); with E. coli 63103 (ESBL), 64 µg/mL (≈ 41.4 µM); in the series with P. maltophilia ATCC13637, 1 µg/mL (≈ 0.646 µM). In addition, the MIC in the series with E. faecalis F43559 (VRE) was determined as 128 µg/mL (≈ 82.7 µM); in the series on E. coli 64771 (ESBL), 16 µg/mL (≈ 10.3 µM); in the series on P. aeruginosa 198 (MDR), 128 µg/mL (≈ 82.7 µM); in series [5], 32 µg/mL (≈ 20.7 µM); in the series with E. faecalis W61950 (VRE), 128 µg/mL (≈ 82.7 µM); in series [6], 128 µg/mL (≈ 82.7 µM). Moreover, the values for the MIC (in [7]; against E. faecalis ATCC29212) were 32 µg/mL (≈ 20.7 µM) and 64 µg/mL (≈ 41.4 µM), respectively. The “HD10 (hemolytic activity)” value with erythrocytes is reported as >200 / >200. The “HD50 (hemolytic activity)” value with erythrocytes is >200 / >200.

Regarding `C[C@H](NCC(=O)N(CC(=O)N(CCCCN)CC(=O)N(CC(=O)N(CCCCN)CC(=O)N(CC(=O)N(CCCCN)CC(=O)N(CC(=O)N(CC(=O)N(CC(=O)N(CC(=O)N(CCCCN)CC(N)=O)[C@@H](C)c1ccccc1)[C@@H](C)c1ccccc1)[C@@H](C)c1ccccc1)[C@@H](C)c1ccccc1)[C@@H](C)c1ccccc1)[C@@H](C)c1ccccc1)[C@@H](C)c1ccccc1)c1ccccc1` [Peptoid 1scr, H-(Nspe)2-(NLys-Nspe)3-(Nspe)3-NLys-NH2] (H-[Nspe][Nspe][Nlys][Nspe][Nlys][Nspe][Nlys][Nspe][Nspe][Nspe][Nspe][Nlys]-NH2), the “ID50 (inhibitory dose, metabolic activity)” value in the series with NIH 3T3 cells stood at 8.5 µM. Further, the “MIC E. coli” value with E. coli ATCC 35218 turned out to be 6.3 µM (≈ 11.5 µg/mL). The MIC in the series with E. faecium mic80 (VRE) was 8 µg/mL (≈ 4.4 µM); with S. aureus ATCC25923 it was 8 µg/mL (≈ 4.4 µM); in [1] it was 16 µg/mL (≈ 8.79 µM); in the series with P. aeruginosa 9 (MDR), 256 µg/mL (≈ 141 µM); in [2], 4 µg/mL (≈ 2.2 µM); in the series with S. aureus C623 (MRSA) it was 8 µg/mL (≈ 4.4 µM). For the same compound, the MIC against P. aeruginosa 213 (MDR) amounted to 16 µg/mL (≈ 8.79 µM); in [3], 16 µg/mL (≈ 8.79 µM); against E. faecium T62764 (VRE) it was 2 µg/mL (≈ 1.1 µM); in series [4], 64 µg/mL (≈ 35.2 µM); in the series with E. coli 63103 (ESBL), 64 µg/mL (≈ 35.2 µM); with P. maltophilia ATCC13637 it was 2 µg/mL (≈ 1.1 µM). Also, the MIC came to 8 µg/mL (≈ 4.4 µM) against E. faecalis F43559 (VRE); 16 µg/mL (≈ 8.79 µM) in the series with E. coli 64771 (ESBL); 32 µg/mL (≈ 17.6 µM) with P. aeruginosa 198 (MDR); 32 µg/mL (≈ 17.6 µM) in series [5]; 32 µg/mL (≈ 17.6 µM) with E. faecalis W61950 (VRE); 128 µg/mL (≈ 70.4 µM) in series [6]. Also, the values for the MIC (in [7]; against E. faecalis ATCC29212) were 64 µg/mL (≈ 35.2 µM) and 8 µg/mL (≈ 4.4 µM), respectively. Moreover, the “HD10 (hemolytic activity)” value in the series on erythrocytes is 64. In addition, in the series on erythrocytes, the “HD50 (hemolytic activity)” value is recorded as more than 200.

On to “H-(NLys-Nspe-Nspe)3-NH2 [Peptoid 1_9mer]”, for which the “MIC E. coli” value in the series with E. coli ATCC 35218 was found to be 25 µM. Moreover, the “MIC B. subtilis” value against B. subtilis ATCC 6633 worked out at 1.6 µM.

These data come from article PMC4744035, “In Vivo, In Vitro, and In Silico Characterization of Peptoids as Antimicrobial Agents” (PLoS ONE, 2016).
